Measurements as given in ChEMBL document CHEMBL5331062, “2,6-Difluorobenzamide derivatives as store-operated calcium channel (SOC) inhibitors” (Eur J Med Chem, 2022).
The source made the active and inactive calls. The rule behind the calls is not given here.

Experiments:
Caco-2 [1] = assay: Inhibition of SOC activity in human Caco-2 cells at 1 uM induced by thapsigargin for 5 mins followed by Ca2+ […] addition and measured after 5 mins after compound addition by Ca2+ imaging method; assay type: cell-based
Caco-2 [2] = assay: Inhibition of cell migration in human Caco-2 cells assessed as reduction in cell motility at 1 uM measured after 24 hrs by wound healing assay; assay type: functional, cell-based
Caco-2 [3] = assay: Inhibition of SOC activity in human Caco-2 cells co-transfected with STIM1-YFP/Orai1-mCherry assessed as reduction in thapsigargin induced STIM1-Orai1 interaction at 1 uM preincubated with thapsigargin for 2 mins followed by compound treatment by time-lapse TIRF-FRET assay; assay type: cell-based
[4] = Oral bioavailability in Sprague-Dawley rat at 20 mg/kg measured upto 24 hrs by LC-MS/MS analysis; assay type: ADME, organism-based; settings: in vivo
Caco-2 [5] = assay: Inhibition of SOC activity in human Caco-2 cells assessed as stabilization of STIM1-EB1 complex by immunoprecipitation-Western blot analysis; assay type: cell-based
Caco-2 [6] = assay: Antiproliferative activity against human Caco-2 cells assessed as reduction in cell growth incubated for 24 hrs by WST-8 cell proliferation assay; assay type: functional, cell-based
[7] = Clearance in Sprague-Dawley rat at 2 mg/kg, iv measured upto 24 hrs by LC-MS/MS analysis; assay type: ADME, organism-based; settings: in vivo
[8] = AUC (0 to infinity) in Sprague-Dawley rat at 2 mg/kg, iv measured upto 24 hrs by LC-MS/MS analysis; assay type: ADME, organism-based; set-up: dose 2 mg/kg, time < 24 hrs, route iv; settings: in vivo
[9] = Cmax in Sprague-Dawley rat at 20 mg/kg, po measured upto 24 hrs by LC-MS/MS analysis; assay type: ADME, organism-based; set-up: dose 20 mg/kg, time < 24 hrs, route po; settings: in vivo
[10] = Half life in Sprague-Dawley rat at 2 mg/kg, iv measured upto 24 hrs by LC-MS/MS analysis; assay type: ADME, organism-based; settings: in vivo
[11] = Tmax in Sprague-Dawley rat at 20 mg/kg, po measured upto 24 hrs by LC-MS/MS analysis; assay type: ADME, organism-based; settings: in vivo
[12] = Half life in Sprague-Dawley rat at 20 mg/kg, po measured upto 24 hrs by LC-MS/MS analysis; assay type: ADME, organism-based; settings: in vivo
[13] = AUC (0 to infinity) in Sprague-Dawley rat at 20 mg/kg, po measured upto 24 hrs by LC-MS/MS analysis; assay type: ADME, organism-based; set-up: dose 20 mg/kg, time < 24 hrs, route po; settings: in vivo
Caco-2 [14] = assay: Inhibition of SOC activity in human Caco-2 cells co-transfected with STIM1-YFP/Orai1-mCherry assessed as reduction in thapsigargin induced STIM1-Orai1 interaction at 1 uM preincubated with thapsigargin for 2 mins followed by compound treatment by calcium influx assay; assay type: cell-based
Caco-2 [15] = assay: Inhibition of SOC activity in human Caco-2 cells co-transfected with STIM1-YFP/Orai1-mCherry assessed as reduction in thapsigargin induced STIM1-Orai1 interaction at 1 uM preincubated with compound for 30 mins followed by thapsigargin induction by time-lapse TIRF-FRET assay; assay type: cell-based
Caco-2 [16] = assay: Inhibition of cell migration in human Caco-2 cells assessed as suppression of cell growth at 1 uM measured after 48 hrs by transwell migration assay; assay type: functional, cell-based
[17] = Volume of distribution at steady state in Sprague-Dawley rat at 2 mg/kg, iv measured upto 24 hrs by LC-MS/MS analysis; assay type: ADME, organism-based; settings: in vivo, read-out: Vdss
Caco-2 [18] = assay: Inhibition of cell invasion in human Caco-2 cells assessed as suppression of cell growth at 1 uM measured after 48 hrs by crystal violet staining based analysis; assay type: functional

bioavailability [4] [%]	clearance [7] [L/h/kg]	AUC(0-inf) [8] [µg·h/mL]	Cmax [9] [µg/mL]	half-life [10] [h]	Tmax [11] [h]	half-life [12] [h]	AUC(0-inf) [13] [µg·h/mL]	Vd [17] [L/kg]	SMILES	inhibition (Caco-2 [1])	inhibition (Caco-2 [2])	Activity (Caco-2 [6])	inhibition (Caco-2 [14])	inhibition (Caco-2 [15])	other results
									O=C(Nc1ccc(NC(=O)c2c(F)cccc2F)cc1)c1cncc(F)c1	Active					
									O=C(Nc1ccc(-c2ccco2)cn1)c1c(F)cccc1F	Active	Active				
34	0.144	15.9	2.16	24	6	16	54	3.9	O=C(Nc1ccc(-c2ccc(F)cc2)cn1)c1c(F)cccc1F	Active	Active	inactive	Active	Active	inhibition (Caco-2 [3]): Active; inhibition (Caco-2 [5]): Active; inhibition (Caco-2 [16]): Active; inhibition (Caco-2 [18]): Active
									COc1ccc(-c2ccc(NC(=O)c3c(F)cccc3F)nc2)cc1OC	Active					
20.6	2.06	0.969	0.257	5.2	3.3	2.5	2	2.4	COc1ccc(OC)c(-c2ccc(NC(=O)c3ccncc3F)cc2)c1			inactive	Active	Active	
									O=C(Nc1ccc(-c2cccc(Cl)c2)cn1)c1c(F)cccc1F		Active				
